The results in this text go back to patent US20120088746A1, “AMIDE DERIVATIVES AS ION-CHANNEL LIGANDS AND PHARMACEUTICAL COMPOSITIONS AND METHODS OF USING THE SAME” (PFIZER INC., priority 2006, published 2012).

The term IC50 denotes the concentration needed to halve the response being measured.

For this assay, the target named is human VR1 (Homo sapiens, UniProt Q8NER1). Put plainly: Acid stimulation assay (acid-induced intracellular calcium change, FDSS 6000). Format: cell-based. As to conditions: final assay buffer pH5.8, 15 min pre-incubation, read-out: IC50 (nM) Low pH. An excerpt:
VR1 antagonistic activity can be determined by the Ca^2+ imaging assay using human VR1 highly expressing cells. The cells that highly express human VR1 receptors are obtainable from several different conventional methods. The one standard method is cloning from human Dorsal Root Ganglion (DRG) or kidney according to the methods such as described in the journal article; Nature, 389, pp 816-824, 1997. Alternatively VR1 receptors highly expressing human keratinocytes are also known and published in the journal article (Biochemical and Biophysical Research Communications, 291, pp 124-129, 2002). […] Furthermore, the method to up regulate human VR1 gene, which is usually a silent gene or don't produce detectable level of VR1 receptors, is also available to obtain propriety cells. Such genetic modification method was described in detail; Nat. Biotechnol., 19, pp 440-445, 2001.
The cells that express human VR1 receptors were maintained in culture flask at 37° C. in an environment containing 5% CO2 until use in the assay. The intracellular Ca^2+ imaging assay to determine VR1 antagonistic activities were done by following procedures.
The culture medium was removed from the flask and fura-2/AM fluorescent calcium indicator was added to the flask at a concentration of 5 μM in the medium. The flask was placed in CO2 incubator and incubated for 1 hour. Then the cells expressing the human VR1 receptors were detached from the flask follow by washing with phosphate buffer saline, PBS(−) and re-suspended in assay buffer. The 80 tit of aliquot of cell suspension (3.75×10^5 cells/ml) was added to the assay plate and the cells were spun down by centrifuge (950 rpm, 20° C., 3 minutes).
The Acid-induced changes in the intracellular calcium concentration were monitored using FDSS 6000 (Hamamatsu Photonics, Japan), a fluorometric imaging system. The cell suspension in resting buffer (HBSS supplemented with 10 mM HEPES, pH 7.4) were pre-incubated with varying concentrations of the test compounds or resting buffer (buffer control) for 15 minutes at room temperature under the dark condition. The cells were automatically added the stimulating solution (HBSS supplemented with MES, final assay buffer pH5.8) by the FDSS 6000.
The Acid-induced changes in the intracellular calcium concentration were monitored using FDSS 6000 (Hamamatsu Photonics, Japan), a fluorometric imaging system. The cell suspension in resting buffer (HBSS supplemented with 10 mM HEPES, pH 7.4) was pre-incubated with varying concentrations of the test compounds or resting buffer (buffer control) for 15 minutes at room temperature under dark conditions. The cells were automatically added to the stimulating solution (HBSS supplemented with MES, final assay buffer pH5.8) by the FDSS 6000.
For orientation: Calcium flux is commonly read through the fluorescence of an indicator in the cells.

Sequence of human VR1 (Q8NER1 whole entry): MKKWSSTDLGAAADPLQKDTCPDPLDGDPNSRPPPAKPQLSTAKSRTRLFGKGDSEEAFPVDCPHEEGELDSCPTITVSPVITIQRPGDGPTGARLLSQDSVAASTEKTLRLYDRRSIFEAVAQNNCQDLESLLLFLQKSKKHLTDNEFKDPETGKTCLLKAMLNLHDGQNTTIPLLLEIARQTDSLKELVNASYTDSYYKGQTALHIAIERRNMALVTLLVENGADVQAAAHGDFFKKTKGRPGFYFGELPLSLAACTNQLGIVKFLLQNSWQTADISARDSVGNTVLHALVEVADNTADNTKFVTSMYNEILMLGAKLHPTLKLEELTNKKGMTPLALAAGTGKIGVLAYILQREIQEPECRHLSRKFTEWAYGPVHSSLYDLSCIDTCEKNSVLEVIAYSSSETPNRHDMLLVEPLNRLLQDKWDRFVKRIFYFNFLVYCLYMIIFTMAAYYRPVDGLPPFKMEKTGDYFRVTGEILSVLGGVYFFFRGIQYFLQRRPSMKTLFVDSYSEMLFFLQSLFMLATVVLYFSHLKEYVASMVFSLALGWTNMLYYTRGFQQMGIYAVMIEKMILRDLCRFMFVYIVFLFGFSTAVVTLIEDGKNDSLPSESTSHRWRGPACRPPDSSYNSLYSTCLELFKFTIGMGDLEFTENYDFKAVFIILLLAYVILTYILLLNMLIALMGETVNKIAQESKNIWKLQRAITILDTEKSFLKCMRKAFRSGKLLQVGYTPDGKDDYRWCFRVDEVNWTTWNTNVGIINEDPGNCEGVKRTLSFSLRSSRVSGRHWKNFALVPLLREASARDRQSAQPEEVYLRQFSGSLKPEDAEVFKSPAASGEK

Take `C[C@@H](NC(=O)c1cnc2cc(C(C)(C)C)ccc2c1)c1ccc(NS(C)(=O)=O)cc1` [Example 41, 7-TERT-BUTYL-N-((1R)-1-{4-[(METHYLSULFONYL)AMINO]PHENYL}ETHYL)QUINOLINE-3-CARBOXAMIDE]: the IC50 came out at 29 nM.
Turning to `Cc1cc([C@@H](C)NC(=O)c2cnc3cc(C(C)(C)C)ccc3c2C)ccc1NS(C)(=O)=O` [Example 42, 7-TERT-BUTYL-4-METHYL-N-((1R)-1-{3-METHYL-4-[(METHYLSULFONYL)AMINO]PHENYL}-ETHYL)QUINOLINE-3-CARBOXAMIDE], the IC50 stood at 532 nM.
For `Cc1cc([C@@H](C)NC(=O)c2cnc3cc(C(F)(F)F)ccc3c2)c(F)cc1NS(C)(=O)=O` [Example 43, N-((1R)-1-{2-FLUORO-5-METHYL-4-[(METHYLSULFONYL)AMINO]PHENYL}ETHYL)-7-(TRIFLUOROMETHYL)QUINOLINE-3-CARBOXAMIDE] the value was 30 nM.
With `CCOc1ccc2cc(C(=O)N[C@H](C)c3ccc(NS(C)(=O)=O)c(C)c3)ccc2n1` [Example 44, 2-ETHOXY-N-((1R)-1-{3-METHYL-4-[(METHYLSULFONYL)AMINO]PHENYL}ETHYL)-QUINOLINE-6-CARBOXAMIDE], the 50% inhibitory concentration (IC50) came to 15 nM.
On to `Cc1cc([C@@H](C)NC(=O)c2ccc3cc(C(F)(F)F)ccc3c2)ccc1NS(C)(=O)=O` [Example 51, N-((1R)-1-{3-METHYL-4-[(METHYLSULFONYL)AMINO]PHENYL}ETHYL)-6-(TRIFLUORO-METHYL)-2-NAPHTHAMIDE], for which the IC50 is 1 nM.
For `Cc1cc([C@@H](C)NC(=O)c2ccc3cc(C4CC4)ccc3c2)c(Cl)cc1NS(C)(=O)=O` [Example 52, (R)—N-(1-(2-CHLORO-5-METHYL-4-(METHYLSULFONAMIDO)PHENYL)ETHYL)-6-CYCLOPROPYL-2-NAPHTHAMIDE], the IC50 was 22 nM.
In the case of `Cc1cc([C@@H](C)NC(=O)c2cnc3cc(C(F)(F)F)ccc3c2)c(Cl)cc1NS(C)(=O)=O` [Example 53, (R)—N-(1-(2-CHLORO-5-METHYL-4-(METHYLSULFONAMIDO)PHENYL)ETHYL)-7-(TRIFLUOROMETHYL)QUINOLINE-3-CARBOXAMIDE], the IC50 turned out to be 36 nM.
For `Cc1cc([C@@H](C)NC(=O)c2ccc3cc(C(F)(F)F)ccc3c2)ncc1NS(C)(=O)=O` [Example 54, N-((1R)-1-{4-METHYL-5-[(METHYLSULFONYL)AMINO]PYRIDIN-2-YL}ETHYL)-6-(TRIFLUOROMETHYL)-2-NAPHTHAMIDE] the value was 12 nM; for `Cc1cc([C@@H](C)NC(=O)c2ccc3cc(C(F)(F)F)ccc3n2)c(Cl)cc1NS(C)(=O)=O` [Example 57, (R)—N-(1-(2-CHLORO-5-METHYL-4-(METHYLSULFONAMIDO)PHENYL)ETHYL)-6-(TRIFLUOROMETHYL)QUINOLINE-2-CARBOXAMIDE], 58 nM; for `Cc1cc([C@@H](C)NC(=O)c2ccc3cc(C4(C)CC4)ccc3c2)ncc1NS(C)(=O)=O` [Example 58, (R)—N-(1-(4-METHYL-5-(METHYLSULFONAMIDO)PYRIDIN-2-YL)ETHYL)-6-(1-METHYL-CYCLOPROPYL)-2-NAPHTHAMIDE], 7 nM.
`Cc1cc([C@@H](C)NC(=O)c2ccc3nc(N4CCCC4)ccc3c2)c(F)cc1NS(C)(=O)=O` [Example 68, (R)—N-(1-(2-FLUORO-5-METHYL-4-(METHYLSULFONAMIDO)PHENYL)ETHYL)-2-(PYRROLIDIN-1-YL)QUINOLINE-6-CARBOXAMIDE]: the IC50 amounted to 293 nM.
With `Cc1cc([C@@H](C)NC(=O)c2ccc3nc(C(F)(F)F)cc(N4CCCCC4)c3c2)c(F)cc1NS(C)(=O)=O` [Example 70, 4-PIPERIDIN-1-YL-2-TRIFLUOROMETHYL-QUINOLINE-6-CARBOXYLIC ACID [(R)-1-(2-FLUORO-4-METHANESULFONYLAMINO-5-METHYL-PHENYL)-ETHYL]-AMIDE], the IC50 was 26 nM.
Turning to `Cc1cc([C@@H](C)NC(=O)c2ccc3nc(C(F)(F)F)cc(N4CCC(F)(F)CC4)c3c2)c(F)cc1NS(C)(=O)=O` [Example 73, 4-(4,4-DIFLUORO-PIPERIDIN-1-YL)-2-TRIFLUOROMETHYL-QUINOLINE-6-CARBOXYLIC ACID [(R)-1-(2-FLUORO-4-METHANESULFONYLAMINO-5-METHYL-PHENYL)-ETHYL]-AMIDE], the IC50 was determined as 29 nM.
With `C[C@@H](NC(=O)c1ccc2cc(C(F)(F)F)ccc2c1)c1ccc(NS(C)(=O)=O)c(CO)c1` [Example 74, N-((1R)-1-{3-(HYDROXYMETHYL)-4-[(METHYLSULFONYL)AMINO]PHENYL}ETHYL)-6-(TRIFLUOROMETHYL)-2-NAPHTHAMIDE], the half-maximal inhibitory concentration (IC50) was 13 nM.
Take `Cc1cc([C@@H](C)NC(=O)c2ccc3nc(C(F)(F)F)cc(N4CCC(C(F)(F)F)CC4)c3c2)c(F)cc1NS(C)(=O)=O` [Example 76, 2-TRIFLUOROMETHYL-4-(4-TRIFLUOROMETHYL-PIPERIDIN-1-YL)-QUINOLINE-6-CARBOXYLIC ACID [(R)-1-(2-FLUORO-4-METHANESULFONYLAMINO-5-METHYL-PHENYL)-ETHYL]-AMIDE]: the half-inhibitory concentration (IC50) was 48 nM.
For the compound `Cc1cc([C@@H](C)NC(=O)c2ccc3ccc(C(F)(F)F)cc3c2)ccc1NS(C)(=O)=O` [Example 77], the IC50 was determined as 4 nM.
With `Cc1cc([C@@H](C)NC(=O)c2ccc3nc(N4CCOCC4)ccc3c2)c(F)cc1NS(C)(=O)=O` [Example 81, ((R)—N-(1-(2-FLUORO-5-METHYL-4-(METHYLSULFONAMIDO)PHENYL)ETHYL)-2-MORPHOLINOQUINOLINE-6-CARBOXAMIDE] the figure was 748 nM; with `Cc1cc([C@@H](C)NC(=O)c2ccc3nc(C(F)(F)F)nc(N4CCCCC4)c3c2)c(F)cc1NS(C)(=O)=O` [Example 84, 4-PIPERIDIN-1-YL-2-TRIFLUOROMETHYL-QUINAZOLINE-6-CARBOXYLIC ACID [(R)-1-(2-FLUORO-4-METHANESULFONYLAMINO-5-METHYL-PHENYL)-ETHYL]-AMIDE], 51 nM.
For the compound `Cc1cc([C@@H](C)NC(=O)c2ccc3nc(C(F)(F)F)nc(N4CCN(c5cccc(Cl)c5)CC4)c3c2)c(F)cc1NS(C)(=O)=O` [Example 85, 4-[4-(3-CHLORO-PHENYL)-PIPERAZIN-1-YL]-2-TRIFLUOROMETHYL-QUINAZOLINE-6-CARBOXYLIC ACID [(R)-1-(2-FLUORO-4-METHANESULFONYLAMINO-5-METHYL-PHENYL)-ETHYL]-AMIDE], the IC50 came to 60 nM.
For `Cc1cc([C@@H](C)NC(=O)c2ccc3nc(C(F)(F)F)nc(N4CC(C)OC(C)C4)c3c2)c(F)cc1NS(C)(=O)=O` (stereo partly drawn) [Example 86, 4-(2,6-DIMETHYL-MORPHOLIN-4-YL)-2-TRIFLUOROMETHYL-QUINAZOLINE-6-CARBOXYLIC ACID [(R)-1-(2-FLUORO-4-METHANESULFONYLAMINO-5-METHYL-PHENYL)-ETHYL]-AMIDE] the value was 7 nM; for `Cc1cc([C@@H](C)NC(=O)c2cnc3cc(C4CC4)cnc3c2)c(F)cc1NS(C)(=O)=O` [Example 87, 7-CYCLOPROPYL-[1.5]NAPHTHYRIDINE-3-CARBOXYLIC ACID [(R)-1-(2-FLUORO-4-METHANESULFONYLAMINO-5-METHYL-PHENYL)-ETHYL]-AMIDE], 111 nM.
Turning to `COc1ccccc1N1CCN(c2nc(C(F)(F)F)nc3ccc(C(=O)N[C@H](C)c4cc(C)c(NS(C)(=O)=O)cc4F)cc23)CC1` [Example 88, 4-[4-(2-METHOXY-PHENYL)-PIPERAZIN-1-YL]-2-TRIFLUOROMETHYL-QUINAZOLINE-6-CARBOXYLIC ACID [(R)-1-(2-FLUORO-4-METHANESULFONYLAMINO-5-METHYL-PHENYL)-ETHYL]-AMIDE], the IC50 was 50 nM.
